Patent US9926324B2, “Heteroaromatic compounds as PI3 kinase modulators and methods of use” (Calitor Sciences, LLC, priority 2012, dated 2018)
Like-named read-outs stand apart in the source and are kept apart here.

Legend:
[1] = Pharmacokinetic profiles in rats after intravenous and oral administration; assay type: in vivo; conditions: for F: oral dose generally 5 or 10 mg/kg; for AUC(0-t) / half-life / Vd: rat, plasma; for Vd: read-out: Vss
Experimental: The compounds disclosed herein are assessed in pharmacokinetic studies in mice, rats, dogs or monkeys. The compounds are administered as a water solution, 2% HPMC+1% TWEEN® 80 in water solution, 5% DMSO+5% solutol in saline, 4% MC suspension or capsule. For the intravenous administration, the animals are generally given at 1 or 2 mg/kg dose. For the oral (p.o.) dosing, mice and rats are generally given 5 or 10 mg/kg dose, and dogs and monkeys are generally given 10 mg/kg dose. The blood samples (0.3 mL) are drawn at 0.25, 0.5, 1.0, 2.0, 3.0, 4.0, 6.0, 8.0, 12 and 24 h time points or 0.083, 0.25, 0.5, 1.0, 2.0, 4.0, 6.0, 8.0 and 24 h time points and centrifuged at 3,000 or 4000 rpm for 2 to 10 min. The plasma solutions are collected, stored at −20° C. or −70° C. until analyzed by LC/MS/MS as described above.

PI3K p110α/p85α (h) = target: T1, PI3K p110α/p85α (h) (Homo sapiens, UniProt P42336); assay: PI3K p110α/p85α (h) non-radioactive HTRF assay; assay type: biochemical
T1 construct: purchased Millipore UK Ltd (assay service)
T1 sequence (P42336 whole entry): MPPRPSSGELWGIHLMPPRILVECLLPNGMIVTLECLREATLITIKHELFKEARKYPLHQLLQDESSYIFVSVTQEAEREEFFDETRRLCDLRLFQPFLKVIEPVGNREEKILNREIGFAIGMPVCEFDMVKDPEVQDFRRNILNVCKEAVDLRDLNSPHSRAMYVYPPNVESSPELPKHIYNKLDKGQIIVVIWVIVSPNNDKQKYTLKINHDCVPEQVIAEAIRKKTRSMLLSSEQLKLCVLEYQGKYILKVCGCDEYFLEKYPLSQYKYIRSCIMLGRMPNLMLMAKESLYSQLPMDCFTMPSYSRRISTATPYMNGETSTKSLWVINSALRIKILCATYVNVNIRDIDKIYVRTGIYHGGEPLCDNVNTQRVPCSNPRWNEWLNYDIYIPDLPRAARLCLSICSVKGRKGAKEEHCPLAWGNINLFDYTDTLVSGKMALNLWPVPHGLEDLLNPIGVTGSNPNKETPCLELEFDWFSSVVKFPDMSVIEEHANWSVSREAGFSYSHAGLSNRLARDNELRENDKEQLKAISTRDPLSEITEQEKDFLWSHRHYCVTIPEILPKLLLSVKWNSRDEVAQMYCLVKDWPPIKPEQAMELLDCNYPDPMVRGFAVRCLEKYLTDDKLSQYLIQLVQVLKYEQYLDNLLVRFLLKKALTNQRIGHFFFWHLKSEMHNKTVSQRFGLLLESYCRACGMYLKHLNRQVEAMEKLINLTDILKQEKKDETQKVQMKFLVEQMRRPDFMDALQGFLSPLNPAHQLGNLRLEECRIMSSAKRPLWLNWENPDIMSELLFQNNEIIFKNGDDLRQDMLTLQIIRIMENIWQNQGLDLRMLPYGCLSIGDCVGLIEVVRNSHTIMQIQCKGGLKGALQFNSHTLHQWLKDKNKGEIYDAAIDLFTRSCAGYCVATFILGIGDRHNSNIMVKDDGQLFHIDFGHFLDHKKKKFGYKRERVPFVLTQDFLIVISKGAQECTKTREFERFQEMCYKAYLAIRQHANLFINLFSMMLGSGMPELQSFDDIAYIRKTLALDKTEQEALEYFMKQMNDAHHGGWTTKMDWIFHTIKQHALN
T1 sequence (P27986 whole entry partner): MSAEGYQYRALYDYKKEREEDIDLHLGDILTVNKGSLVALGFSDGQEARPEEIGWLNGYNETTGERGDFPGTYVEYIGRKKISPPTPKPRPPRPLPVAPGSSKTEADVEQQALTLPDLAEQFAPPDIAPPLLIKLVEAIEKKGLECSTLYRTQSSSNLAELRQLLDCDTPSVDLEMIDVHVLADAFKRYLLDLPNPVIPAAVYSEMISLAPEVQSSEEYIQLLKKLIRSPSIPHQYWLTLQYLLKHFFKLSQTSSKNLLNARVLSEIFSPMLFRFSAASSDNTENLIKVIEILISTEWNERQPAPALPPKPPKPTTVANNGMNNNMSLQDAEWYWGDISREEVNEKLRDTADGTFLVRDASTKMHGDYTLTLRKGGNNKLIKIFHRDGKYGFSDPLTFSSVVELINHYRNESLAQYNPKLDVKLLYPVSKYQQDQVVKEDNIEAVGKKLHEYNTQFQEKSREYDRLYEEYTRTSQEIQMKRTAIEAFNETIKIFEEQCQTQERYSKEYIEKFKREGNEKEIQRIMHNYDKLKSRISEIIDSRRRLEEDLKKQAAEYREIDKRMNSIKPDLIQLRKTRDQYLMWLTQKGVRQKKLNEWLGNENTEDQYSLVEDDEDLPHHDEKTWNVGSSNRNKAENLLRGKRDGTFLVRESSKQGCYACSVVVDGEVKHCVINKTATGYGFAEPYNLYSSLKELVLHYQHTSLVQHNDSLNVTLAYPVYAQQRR
Experimental: PI3K p110α/p85α (h) is incubated in assay buffer containing 10 μM phosphatidylinositol 4,5-bisphosphate and MgATP (concentration as required). The reaction is initiated by the addition of the ATP solution. After incubation for 30 minutes at room temperature, the reaction is stopped by the addition of stop solution containing EDTA and biotinylated phosphatidylinositol-3,4,5-trisphosphate. Finally, detection buffer is added, which contains europium-labelled anti-GST monoclonal antibody, GST-tagged GRP1 PH domain and streptavidin allophycocyanin. The plate is then read in timeresolved fluorescence mode and the homogenous time-resolved fluorescence (HTRF) signal is determined according to the formula HTRF=10000×(Em665 nm/Em620 nm).
(§1) The kinase assays described herein were performed at Millipore UK Ltd, Dundee Technology Park, Dundee DD2 1SW, UK.

[2] = Compound stability in human liver microsomes; assay type: in vitro ADME; conditions: pH 7.4; for half-life at 5 μM: human liver microsomes 0.5 mg protein/mL, compound 5 μM, NADPH 1.0 mM, 37° C., read-out: Human T1/2; for CLint scaled at 5 μM: human liver microsomes, in vivo CLint extrapolated
Experimental: (§2) Human or rat liver microsomes incubations were conducted in duplicate in polypropylene tubes. The typical incubation mixtures consisted of human or rat liver microsomes (0.5 mg protein/mL), compounds of interest (5 μM) and NADPH (1.0 mM) in a total volume of 200 μL potassium phosphate buffer (PBS, 100 mM, pH=7.4). Compounds were dissolved in DMSO and diluted with PBS such that the final concentration of DMSO was 0.05%. The enzymatic reactions were commenced with the addition of […] after a 3-min preincubation and incubated in a water bath open to the air at 37° C. Reactions were terminated at various time points (0, 5, 10, 15, 30, 60 min) by adding equal volume of ice-cold acetonitrile. The samples were stored at −80° C. until LC/MS/MS assays.
(§3) The concentrations of compounds in the incubation mixtures of human or rat liver microsomes were determined by a LC/MS/MS method. The ranges of the linearity in the concentration range were determined for each tested compounds.
(§4) A parallel incubation was performed using denatured microsomes as the negative control, and reactions were terminated at various time points (0, 15, 60 min) after incubation at 37° C.
(§5) Dextromethorphan (70 μM) was selected as the positive control, and reactions were terminated at various time points (0, 5, 10, 15, 30, 60 min) after incubation at 37° C. Both positive and negative control samples were included in each assay to ensure the integrity of the microsomal incubation system.
(§6) The concentrations of compounds in human or rat liver microsome incubations were plotted as a percentage of the relevant zero time point control for each reaction. The in vivo CLint were extrapolated (ref: Naritomi Y, Terashita S, Kimura S, Suzuki A, Kagayama A, Sugiyama Y. Prediction of human hepatic clearance from in vivo animal experiments and in vitro metabolic studies with liver microsomes from animals and humans. Drug Metabolism and Disposition 2001, 29: 1316-1324).

[3] = Compound stability in rat liver microsomes; assay type: in vitro ADME; conditions: pH 7.4; for half-life at 5 μM: rat liver microsomes 0.5 mg protein/mL, compound 5 μM, NADPH 1.0 mM, 37° C., read-out: Rat T1/2; for CLint scaled at 5 μM: rat liver microsomes, in vivo CLint extrapolated
Experimental: as §2, §3, §4, §5, §6

mTOR (h) = target: T2, mTOR (h) (Homo sapiens, UniProt P42345); assay: mTOR (h) kinase assay (33P-ATP, filter); assay type: biochemical
T2 construct: purchased Millipore UK Ltd (assay service)
Experimental: mTOR (h) is incubated with 50 mM HEPES pH 7.5, 1 mM EDTA, 0.01% Tween 20, 2 mg/mL substrate, 3 mM Manganese Chloride and [γ-^33P-ATP] (specific activity approx. 500 cpm/pmol, concentration as required). The reaction is initiated by the addition of the MnATP mix. After incubation for 40 minutes at room temperature, the reaction is stopped by the addition of 3% phosphoric acid solution. 10 μL of the reaction is then spotted onto a P30 filtermat and washed three times for 5 minutes in 75 mM phosphoric acid and once in methanol prior to drying and scintillation counting.
as §1

U87MG glioblastoma cells = assay: Tumor xenograft model (U87MG), tumor growth inhibition; assay type: in vivo, athymic nude mice; conditions: 12 days
Experimental: The efficacy of compounds disclosed herein was evaluated in a standard murine model of tumorigenesis. Human tumor cells (U87MG glioblastoma cells from ATCC) were expended in culture, harvested, and injected subcutaneously onto the rear flank of 6-7 week old female athymic nude mice (BALB/cA nu/nu, Hunan SLAC Laboratory Animal, Co.) (n=6-10 for vehicle group and for each dosing group). When tumors reached a volume of 100-250 mm^3, animals were randomly divided into vehicle control (for example, 5% DMSO+70% Captisol® (30%), 7% HCl (pH1), 18% Captisol® (30%); or 7% DMSO, 7% HCl (pH1), 70% Captisol® (30%), 16% Captisol® (30%), or the like) and compound groups. Subsequent administration of compound by oral gavage begins anywhere from day 0 to day 15 post tumor cell challenge and generally continues with once a day for the duration of the experiment.
Progression of tumor growth is assessed by tumor volumes and recorded as a function of time. The long (L) and short (W) axes of the subcutaneous tumors were measured with calipers twice weekly, and the tumor volume (TV) calculated as (L×W^2)/2). TGI was calculated from the difference between the median tumor volumes of vehicle-treated and drug-treated mice, expressed as a percentage of the median tumor volume of the vehicle-treated control group, by the following relation:
Initial statistical analysis is done by repeated measures analysis of variance (RMANOVA), followed by Scheffe psot hoc testing for multiple comparisons. Vehicle alone (5% DMSO+70% Captisol® (30%), 7% HCl (pH1), 18% Captisol® (30%); or 7% DMSO, 7% HCl (pH1), 70% Captisol® (30%), 16% Captisol® (30%), or the like) is the negative control.

IC50 (PI3K p110α/p85α (h)) [nM] | half-life at 5 μM [2] [h] | CLint scaled at 5 μM [2] [mL/min/kg] | half-life at 5 μM [3] [h] | CLint scaled at 5 μM [3] [mL/min/kg] | IC50 (mTOR (h)) [nM] | F ([1]; iv dose 1 mg/kg) [%] | Cl/F ([1]; iv dosing 1 mg/kg) [mL/min/kg] | AUC(0-t) ([1]; iv dosing 1 mg/kg) [ng·h/mL] | half-life ([1]; iv dosing 1 mg/kg) [h] | Vd ([1]; iv dosing 1 mg/kg) [L/kg] | Molecule | F ([1]; iv dose 2 mg/kg) [%] | Cl/F ([1]; iv dosing 2 mg/kg) [mL/min/kg] | further results
4 | – | – | – | – | – | 123.7 | 5.5 | 2660 | 3.7 | 1.25 | COc1ncc(-c2ccc3ncc(C#N)n3n2)cc1NS(=O)(=O)c1ccc(F)cc1 [Ex. 6, N-(5-(3-cyanoimidazo[1,2-b]pyridazin-6-yl)-2-methoxypyridin-3-yl)-4-fluorobenzenesulfonamide] | – | – | TGI % U87MG (U87MG glioblastoma cells; 0.3 mg/kg oral gavage): 14%; TGI % U87MG (U87MG glioblastoma cells; 1 mg/kg oral gavage): 41%; TGI % U87MG (U87MG glioblastoma cells; 3 mg/kg oral gavage): 71%
20 | – | – | – | – | 24 | – | – | – | – | – | C#Cc1cnc2ccc(-c3cnc(Cl)c(NS(=O)(=O)c4ccc(F)cc4)c3)nn12 [Ex. 7, N-(2-chloro-5-(3-ethynylimidazo[1,2-b]pyridazin-6-yl)pyridin-3-yl)-4-fluorobenzenesulfonamide] | 95.4 | 0.67 | AUC(0-t) ([1]; iv dosing 2 mg/kg): 48100 ng·h/mL; half-life ([1]; iv dosing 2 mg/kg): 3.19 h; Vd ([1]; iv dosing 2 mg/kg): 0.17 L/kg

The next lines start with the molecule.

Molecule | IC50 (PI3K p110α/p85α (h)) [nM] | half-life at 5 μM [2] [h] | CLint scaled at 5 μM [2] [mL/min/kg] | half-life at 5 μM [3] [h] | CLint scaled at 5 μM [3] [mL/min/kg] | IC50 (mTOR (h)) [nM] | F ([1]; iv dose 1 mg/kg) [%] | Cl/F ([1]; iv dosing 1 mg/kg) [mL/min/kg] | AUC(0-t) ([1]; iv dosing 1 mg/kg) [ng·h/mL] | half-life ([1]; iv dosing 1 mg/kg) [h] | Vd ([1]; iv dosing 1 mg/kg) [L/kg] | F ([1]; iv dose 2 mg/kg) [%] | Cl/F ([1]; iv dosing 2 mg/kg) [mL/min/kg] | further results
4-fluoro N (5 (3 (3 hydroxy-3-methylbut-1-yn-1-yl)-[1,2,4]-triazolo[4,3-b]pyridazin-6-yl)-2-methoxypyridin-3-yl)benzenesulfonamide [Ex. 12] | 32 | – | – | – | – | – | – | – | – | – | – | 1.3 | 77.8 | AUClast ([1]; iv dosing 2 mg/kg): 411 ng·h/mL; T1/2 ([1]; iv dosing 2 mg/kg): 4.71 h; Vss ([1]; iv dosing 2 mg/kg): 18.42 L/kg
COc1ncc(-c2ccc3ncc(C#CC(C)(C)O)n3n2)cc1NS(=O)(=O)c1ccc(F)cc1 [Ex. 4, 4-fluoro-N-(5-(3-(3-hydroxy-3-methylbut-1-yn-1-yl)imidazo[1,2-b]pyridazin-6-yl)-2-methoxypyridin-3-yl)benzenesulfonamide] | 41 | 1.87 | 15.5 | 0.666 | 62.1 | 19 | – | – | – | – | – | – | – | –
CC#Cc1cnc2ccc(-c3cnc(OC)c(NS(=O)(=O)c4ccc(F)cc4)c3)nn12 [Ex. 5, 4-fluoro-N-(2-methoxy-5-(3-(prop-1-yn-1-yl)imidazo[1,2-b]pyridazin-6-yl)pyridin-3-yl)benzenesulfonamide] | 17 | 1.14 | 25.4 | 0.595 | 69.5 | – | 95.6 | 6.17 | 2550 | 8.74 | 2.29 | – | – | –
